The values that follow come from US8188092B2, “Substituted pyrazines as DGAT-1 inhibitors” (AstraZeneca AB, priority 2009, dated 2012).

The test deals with T1, human DGAT1 (Homo sapiens, UniProt O75907).
T1 construct: made in house; host or cells: Sf9 insect cells (baculovirus); membrane fraction
T1 sequence (O75907 1-488): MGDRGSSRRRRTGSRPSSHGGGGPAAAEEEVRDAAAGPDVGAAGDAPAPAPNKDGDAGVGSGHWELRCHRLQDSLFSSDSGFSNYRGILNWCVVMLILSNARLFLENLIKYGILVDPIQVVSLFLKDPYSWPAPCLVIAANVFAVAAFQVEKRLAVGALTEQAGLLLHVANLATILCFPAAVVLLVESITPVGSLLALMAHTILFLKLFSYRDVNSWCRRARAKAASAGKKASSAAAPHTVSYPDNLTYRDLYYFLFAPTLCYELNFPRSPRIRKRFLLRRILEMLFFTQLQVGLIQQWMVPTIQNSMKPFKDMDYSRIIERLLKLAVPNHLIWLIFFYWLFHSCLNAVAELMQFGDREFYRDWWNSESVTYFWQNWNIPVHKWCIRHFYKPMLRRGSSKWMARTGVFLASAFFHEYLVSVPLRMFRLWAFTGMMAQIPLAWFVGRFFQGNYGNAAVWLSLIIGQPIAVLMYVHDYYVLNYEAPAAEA
The test can be described thus: Human Enzyme Assay: in vitro assay to identify DGAT1 inhibitors (14C oleoyl coenzyme A, radioactive triolein product). The note with it: human DGAT1 expressed in insect cell (sf9) membranes; figures usually a mean of 2 measurements. Format: biochemical. Here is the method:
Briefly, sf9 cells were infected with recombinant baculovirus containing human DGAT1 coding sequences and harvested after 48 h. Cells were lysed by sonication and membranes isolated by centrifuging at 28000 rpm for 1 h at 4° C. on a 41% sucrose gradient. The membrane fraction at the interphase was collected, washed, and stored in liquid nitrogen.
The reaction was started by adding ^14C oleoyl coenzyme A (30 μM final concentration) and incubated at room temperature for 30 minutes. The reaction was stopped by adding 200 μl 2-propanol:heptane 7:1. Radioactive triolein product was separated into the organic phase by adding 300 μl heptane and 100 μl 0.1 M carbonate buffer pH 9.5. DGAT1 activity was quantified by counting aliquots of the upper heptane layer by liquid scintillography.
Stated figures are usually a mean of a number of measurements (usually 2 measurements) according to standard practice.

By IC50 is commonly meant the midpoint of a concentration-inhibition curve.

For `Cc1nc(C)c(-c2ccc(-c3ccc(CC(N)=O)cc3Cl)cc2)nc1C(N)=O` [Example 30, 6-(4′-(2-Amino-2-oxoethyl)-2′-chlorobiphenyl-4-yl)-3,5-dimethylpyrazine-2-carboxamide], the IC50 was 11 nM.
